Measurements taken from patent US10011814B2, “Salt formulations for the fermentation of marine microorganisms” (Triphase Research and Development I Corp., priority 2006, dated 2018).

Legend:
[1] = test system: Salinispora tropica CNB476; test: Production of Salinosporamide A and analogs in shake flask culture; titers by HPLC; conditions: Ex.21, CoCl2·6H2O 208 μg/L seed, 52 μg/L production vs no cobalt
Procedure: (§1) To determine the production profile of Low Sodium Frozen Stocks cultures of CNB440, CNB476 and NPS21184 grown up in low sodium production medium, 5 mL each of the 48-hour second seed culture samples of CNB476 and NPS21184 was used to inoculate 100 mL of production medium having the same composition as the seed medium in a 500-mL Erlenmeyer flasks. For CNB440, 5 mL of the 72 hour second seed culture sample was used to inoculate 100 mL of production medium having the same composition as the seed medium in a 500-mL Erlenmeyer flasks. The production cultures were incubated at 250 rpm and 28° C.
(§2) 3.5 mL of the fermentation culture was mixed with equal volume of EtOAc in an extraction tube to extract the various metabolites from the production culture. The mixture was shaken on the shaker for 1 hr. […]
(§3) The production of Salinosporamide A, NPI-0047 and NPI-2065 was monitored by Agilent HP1100 HPLC using an ACE C-18 reversed-phase column (4.6×150 mm), and solvent system consisting of water (0.01% TFA) as solvent A and acetonitrile (0.01% TFA) as solvent B. The elution was started at 100% solvent A for 1 min, 100% solvent A to 35% solvent A gradient in 7 min, held at 35% solvent A for 11 min, 35% solvent A to 100% solvent B in 8 min and held at 100% solvent B for 9 min at a flow rate of 1.5 mL/min with the detector wavelength set at 210 nm and column temperature 35° C. […]

[2] = test system: Salinispora tropica CNB440; test: as above; conditions: Ex.21, CoCl2·6H2O 208 μg/L seed, 52 μg/L production vs no cobalt
Procedure: as §1, §2, §3

CC[C@H]1C(=O)N[C@@]2([C@@H](O)[C@@H]3C=CCCC3)C(=O)O[C@@]12C [NPI-0047, Salinosporamide B]
reduction of production by cobalt [1]: 52% | reduction of production by cobalt [2]: 48%
